biological target: T1, PRMT5/MEP50 (Homo sapiens, UniProt O14744); assay: PRMT5 Biochemical Assay (PRMT5/MEP50 enzyme assay on peptide substrate, 3H-SAM Flashplate); conditions: PRMT5 biochemical assay, Table C-2; read-out: Biochemical IC50
T1 construct: Expressed full-length human Flag-PRMT5/6His-MeP50 protein complex was purified; made in house; host or cells: Spodoptera frugiperda (SF9) insect cells, baculovirus (pDEST8)
Description: S-adenosylmethionine (SAM), S-adenosylhomocysteine (SAH), bicine, KCl, Tween20, dimethylsulfoxide (DMSO), bovine skin gelatin (BSG), and Tris(2-carboxyethyl)phosphine hydrochloride solution (TCEP) were purchased from Sigma-Aldrich at the highest level of purity possible. ^3H-SAM was purchase from American Radiolabeled Chemicals with a specific activity of 80 Ci/mmol 384-well streptavidin Flashplates were purchased from PerkinElmer.
Peptide representative of human histone H4 residues 1-15 was synthesized with a C-terminal linker-affinity tag motif and a C-terminal amide cap by 21st Century Biochemicals. […] The sequence was Ac-[…][K-Biot]-amide (SEQ ID NO.:3).
Full-length human MEP50 (NM_024102) clone was amplified from a human testis cDNA library incorporating a 5′ sequence encoding a 6-histidine tag (MHHHHHH) (SEQ ID NO.:5) fused directly to Arg 2 of MEP50. The amplified genes were sublconed into pENTR/D/TEV (Life Technologies) and subsequently transferred by Gateway™ attL×attR recombination to pDEST8 baculvirus expression vector (Life Technologies).
Recombinant baculovirus and Baculovirus-Infected Insect Cells (BIIC) were generated according to Bac-to-Bac kit instructions (Life Technologies) and Wasilko, 2006, respectively. Protein over-expression was accomplished by infecting exponentially growing Spodoptera frugiperda (SF9) cell culture at 1.2×10^6 cell/ml with a 5000 fold dilution of BIIC stock. Infections were carried out at 27° C. for 72 hours, harvested by centrifugation, and stored at −80° C. for purification.
Flag-PRMT5/6His-MeP50 was eluted with 300 mM Imidazole in the same buffer. […] Reference: Wasilko, D. J. and S. E. Lee: “TIPS: titerless infected-cells preservation and scale-up” Bioprocess J., 5 (2006), pp. 29-32.
General Procedure for PRMT5/MEP50 Enzyme Assays on Peptide Substrates.
The assays were all performed in a buffer consisting of 20 mM Bicine (pH=7.6), 1 mM TCEP, 0.005% BSG, and 0.002% Tween20, prepared on the day of use. Compounds in 100% DMSO (1 ul) were spotted into a polypropylene 384-well V-bottom plates (Greiner) using a Platemate Plus outfitted with a 384-channel head (Thermo Scientific). DMSO (1 ul) was added to Columns 11, 12, 23, 24, rows A-H for the maximum signal control and 1 ul of SAH, a known product and inhibitor of PRMT5/MEP50, was added to columns 11, 12, 23, 24, rows I-P for the minimum signal control. A cocktail (40 ul) containing the PRMT5/MEP50 enzyme and the peptide was added by Multidrop Combi (Thermo-Fisher). The compounds were allowed to incubate with PRMT5/MEP50 for 30 min at 25 degrees Celsius, then a cocktail (10 ul) containing ^3H-SAM was added to initiate the reaction (final volume=51 ul). The final concentrations of the components were as follows: PRMT5/MEP50 was 4 nM, ^3H-SAM was 75 nM, peptide was 40 nM, SAH in the minimum signal control wells was 100 uM, and the DMSO concentration was 1%. The assays were stopped by the addition of non-radioactive SAM (10 ul) to a final concentration of 600 uM, which dilutes the ^3H-SAM to a level where its incorporation into the peptide substrate is no longer detectable. 50 ul of the reaction in the 384-well polypropylene plate was then transferred to a 384-well Flashplate and the biotinylated peptides were allowed to bind to the streptavidin surface for at least 1 hour before being washed three times with 0.1% Tween20 in a Biotek ELx405 plate washer. The plates were then read in a PerkinElmer TopCount plate reader to measure the quantity of ^3H-labeled peptide bound to the Flashplate surface, measured as disintegrations per minute (dpm) or alternatively, referred to as counts per minute (cpm).
where dpm=disintegrations per minute, cmpd=signal in assay well, and min and max are the respective minimum and maximum signal controls.
where top and bottom are the normally allowed to float, but may be fixed at 100 or 0 respectively in a 3-parameter fit.

T1 sequence (O14744 with tags, fused parts or gaps): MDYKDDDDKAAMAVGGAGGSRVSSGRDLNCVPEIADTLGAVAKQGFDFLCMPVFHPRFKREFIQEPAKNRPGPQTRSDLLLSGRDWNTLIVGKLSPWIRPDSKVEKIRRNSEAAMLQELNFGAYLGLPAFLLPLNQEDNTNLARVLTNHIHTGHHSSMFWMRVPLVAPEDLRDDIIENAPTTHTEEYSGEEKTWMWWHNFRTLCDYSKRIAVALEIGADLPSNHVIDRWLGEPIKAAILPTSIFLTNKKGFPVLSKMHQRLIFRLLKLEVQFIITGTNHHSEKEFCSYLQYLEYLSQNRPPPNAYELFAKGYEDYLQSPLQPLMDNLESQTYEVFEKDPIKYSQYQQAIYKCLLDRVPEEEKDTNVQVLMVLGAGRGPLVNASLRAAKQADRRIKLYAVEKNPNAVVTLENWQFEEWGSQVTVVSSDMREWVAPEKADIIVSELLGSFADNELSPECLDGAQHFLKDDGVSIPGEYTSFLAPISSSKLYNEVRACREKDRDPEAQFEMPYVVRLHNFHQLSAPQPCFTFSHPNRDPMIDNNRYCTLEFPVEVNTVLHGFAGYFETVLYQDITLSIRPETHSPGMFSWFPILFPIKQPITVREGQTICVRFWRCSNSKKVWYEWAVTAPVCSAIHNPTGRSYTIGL
T1 sequence (Q9BQA1 with tags, fused parts or gaps partner limits assumed): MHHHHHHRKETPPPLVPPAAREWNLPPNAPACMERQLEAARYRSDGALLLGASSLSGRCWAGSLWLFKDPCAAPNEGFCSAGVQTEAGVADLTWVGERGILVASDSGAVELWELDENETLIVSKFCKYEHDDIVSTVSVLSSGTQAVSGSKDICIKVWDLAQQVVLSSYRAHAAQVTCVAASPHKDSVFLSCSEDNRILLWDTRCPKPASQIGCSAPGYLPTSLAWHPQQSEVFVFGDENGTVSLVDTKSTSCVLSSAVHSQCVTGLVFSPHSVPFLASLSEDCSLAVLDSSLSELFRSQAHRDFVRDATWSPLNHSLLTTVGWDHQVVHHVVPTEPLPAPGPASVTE

SMILES | IC50 [nM]
CN(C)c1ccccc1N1CCN(C[C@H](O)CN2CCc3ccccc3C2)C(=O)C1 [Compound C29] | 101 to 1000
O=C1CN(c2cccc(Cl)c2)CCN1CC(O)CN1CCc2ccccc2C1 (stereo not shown) [Compound C5] | < 100
O=C1Cc2ccccc2N1CC(O)CN1CCc2ccccc2C1 (stereo not shown) [Compound C1] | 101 to 1000
Cc1ccc(N2CCN(CC(O)CN3CCc4ccccc4C3)C(=O)C2)cc1 (stereo not shown) [Compound C15] | 101 to 1000
O=C1CC(c2ccccc2)CCN1C[C@H](O)CN1CCc2ccccc2C1 (stereo partly shown) [Compound C16] | 1000 to 10000
O=C1CN(c2ccc(Cl)cc2)CCN1CC(O)CN1CCc2ccccc2C1 (stereo not shown) [Compound C7] | < 100
CC(=O)N1CCN(CC(O)CN2CCc3ccccc3C2)C(=O)C1 (stereo not shown) [Compound C21] | 1000 to 10000
O=C1CN(Cc2ccccn2)CCN1CC(O)CN1CCc2ccccc2C1 (stereo not shown) [Compound C25] | 1000 to 10000
CN1CCN(CC(O)CN2CCc3ccccc3C2)C(=O)C1 (stereo not shown) [Compound C27] | > 50000

same assay, conditions: Table A-2; PRMT5/MEP50 4 nM, 3H-SAM 75 nM, peptide 40 nM; read-out: Biochemical IC50

SMILES | IC50 [nM]
CC(C)(Oc1ccccc1)C(=O)NCC(O)CN1CCc2ccccc2C1 (stereo not shown) [Compound A25] | 101 to 1000
O=C(Cc1ccccc1)NC[C@H](O)CN1CCc2ccccc2C1 [Compound A55] | 101 to 1000
CC(Oc1ccccc1S(N)(=O)=O)C(=O)NCC(O)CN1CCc2ccccc2C1 (stereo not shown) [Compound A126] | > 50000
O=C(COc1ccccc1C1CNC1)NCC(O)CN1CCc2ccccc2C1 (stereo not shown) [Compound A132] | 1000 to 10000
CN1CCCc2c(OCC(=O)NCC(O)CN3CCc4ccccc4C3)cccc21 (stereo not shown) [Compound A151] | 101 to 1000
O=C(Cc1ccncc1)NCC(O)CN1CCc2ccccc2C1 (stereo not shown) [Compound A51] | 10000 to 50000
O=C(COc1ccccc1OCCN1CCOCC1)NC[C@@H](O)CN1CCc2ccccc2C1 [Compound A87] | 1000 to 10000
CC(=O)Nc1cccnc1OCC(=O)NCC(O)CN1CCc2ccccc2C1 (stereo not shown) [Compound A128] | > 50000
O=C(CCc1ccccc1)NCC(O)CN1CCc2ccccc2C1 (stereo not shown) [Compound A2] | 1000 to 10000
C[C@H](Oc1cccc2cccnc12)C(=O)NC[C@@H](O)CN1CCc2ccccc2C1 [Compound A72] | 1000 to 10000
CN1CC(c2ccccc2OCC(=O)NCC(O)CN2CCc3ccccc3C2)C1 (stereo not shown) [Compound A135] | 1000 to 10000

same assay, conditions: Table B-2; PRMT5/MEP50 4 nM, 3H-SAM 75 nM, peptide 40 nM; read-out: Biochemical IC50

SMILES | IC50 [nM]
O=C(NCC(O)CN1CCc2ccccc2C1)c1cccnc1 (stereo not shown) [Compound B18.] | 101 to 1000
CC(=O)Nc1ccc(C(=O)NCC(O)CN2CCc3ccccc3C2)cc1 (stereo not shown) [Compound B23.] | 101 to 1000
CNCCOc1cccc(C(=O)NCC(O)CN2CCc3ccccc3C2)c1 (stereo not shown) [Compound B39.] | 101 to 1000
CC(Nc1cccc(C(=O)NCC(O)CN2CCc3ccccc3C2)c1)C1CCOCC1 (stereo not shown) [Compound B52.] | 101 to 1000
O=C(NCC(O)CN1CCc2ccccc2C1)c1cccc(-c2cccnc2)c1 (stereo not shown) [Compound B8.] | < 100
CCN(c1cccc(C(=O)NCC(O)CN2CCc3ccccc3C2)c1)C1CCOCC1 (stereo not shown) [Compound B47.] | 101 to 1000
O=C(NCC(O)CN1CCc2ccccc2C1)c1cccc(C(=O)N2CCOCC2)c1 (stereo not shown) [Compound B46.] | 1000 to 10000
O=C(NCC(O)CN1CCc2ccccc2C1)c1cc(NC2CCOCC2)ccc1F (stereo not shown) [Compound B57.] | 101 to 1000
NS(=O)(=O)c1ccc(C(=O)NCC(O)CN2CCc3ccccc3C2)cc1 (stereo not shown) [Compound B21.] | 101 to 1000
O=C(NCC(O)CN1CCc2ccccc2C1)c1cccc(N2CCNCC2)c1 (stereo not shown) [Compound B35.] | < 100
O=C(NCC(O)CN1CCc2ccccc2C1)c1ccccn1 (stereo not shown) [Compound B17.] | 101 to 1000
COc1cc(NC2CCOCC2)cc(C(=O)NCC(O)CN2CCc3ccccc3C2)c1 (stereo not shown) [Compound B56.] | 101 to 1000
O=C(NCC(O)CN1CCc2ccccc2C1)c1ccc(OC2CCOCC2)cc1 (stereo not shown) [Compound B58.] | < 100
NC(=O)c1ccc(C(=O)NCC(O)CN2CCc3ccccc3C2)cc1 (stereo not shown) [Compound B22.] | 101 to 1000
CCN(c1cccc(C(=O)NCC(O)CN2CCc3ccccc3C2)c1C)C1CCOCC1 (stereo not shown) [Compound B41.] | < 100

same assay, conditions: Table D-2; read-out: Biochemical IC50

SMILES | IC50 [nM]
OCc1ccc(-c2cccc(OCC(O)CN3CCc4ccccc4C3)c2)cc1 (stereo not shown) [Compound D73] | 1000 to 10000
OC(COc1cccc(CNc2cc[nH]n2)c1)CN1CCc2ccccc2C1 (stereo not shown) [Compound D6] | 101 to 1000
CCOC(=O)CC1c2ccccc2CCN1CC(O)COc1cccc(-c2ccc3ncn(C)c3c2)c1 (stereo not shown) [Compound D144] | 1000 to 10000
CC1CN(CC(O)COc2cccc(-c3ccc4ncn(C)c4c3)c2)Cc2ccccc21 (stereo not shown) [Compound D101] | 1000 to 10000
CN(C(=O)c1cccnc1)c1cccc(OCC(O)CN2CCc3ccccc3C2)c1 (stereo not shown) [Compound D204] | 1000 to 10000
CC1c2ccccc2CCN1CC(O)COc1cccc(CNC2CCCC2)c1 (stereo not shown) [Compound D50] | 1000 to 10000
O=C(Cn1ccc2cnc(-c3cccc(OCC(O)CN4CCc5ccccc5C4)c3)nc21)N1CCCCC1 (stereo not shown) [Compound D232] | 101 to 1000
O=C(Nc1cccnc1)c1cccc(OCC(O)CN2CCc3ccccc3C2)c1 (stereo not shown) [Compound D268] | 1000 to 10000
Cc1cccc2c1CCN(CC(O)COc1cccc(-c3ccc4ncn(C)c4c3)c1)C2 (stereo not shown) [Compound D213] | 1000 to 10000
CN(C(=O)c1cncn1C)c1cccc(OCC(O)CN2CCc3ccccc3C2)c1 (stereo not shown) [Compound D203] | 1000 to 10000
Cn1cnc2ccc(-c3cccc(OCC(O)CN4CCc5ccc(Cl)cc5C4)c3)cc21 (stereo not shown) [Compound D214] | 1000 to 10000
O=C(Nc1cccc(OCC(O)CN2CCc3ccccc3C2)c1)c1cocn1 (stereo not shown) [Compound D159] | 1000 to 10000
OC(COCc1cc(-c2ccc(Cl)cc2)no1)CN1CCc2ccccc2C1 (stereo not shown) [Compound D11] | 101 to 1000
CNC(=O)Cn1ccc2cnc(-c3cccc(OCC(O)CN4CCc5ccccc5C4)c3)nc21 (stereo not shown) [Compound D206] | 1000 to 10000
Cn1cnc2ccc(-c3cccc(OCC(O)CN4CCc5ccccc5C4Cc4ccccc4)c3)cc21 (stereo not shown) [Compound D143] | > 40000
OC(COc1cccc(CN2CCCCC2)c1)CN1CCc2ccccc2C1 (stereo not shown) [Compound D14] | 1000 to 10000
OC(COc1cccc(-c2ccccn2)c1)CN1CCc2ccccc2C1 (stereo not shown) [Compound D98] | 1000 to 10000
Cn1cnc2ccc(-c3cccc(OCC(O)CN4CCc5ccccc5C4CC(N)=O)c3)cc21 (stereo not shown) [Compound D202] | > 40000
OC(COc1ccc(-c2ccn[nH]2)cc1)CN1CCc2ccccc2C1 (stereo not shown) [Compound D48] | 1000 to 10000
COc1ccc(Cl)c(-c2cccc(OCC(O)CN3CCc4ccccc4C3)c2)c1 (stereo not shown) [Compound D64] | 1000 to 10000
CC(=O)N1CCC(n2cnc3ccc(-c4cccc(OCC(O)CN5CCc6ccccc6C5)c4)cc32)CC1 (stereo not shown) [Compound D228] | 101 to 1000
CN(C(=O)c1cn(C)cn1)c1cccc(OCC(O)CN2CCc3ccccc3C2)c1 (stereo not shown) [Compound D197] | 1000 to 10000
CN(C)S(=O)(=O)c1cccc(-c2cccc(OCC(O)CN3CCc4ccccc4C3)c2)c1 (stereo not shown) [Compound D61] | > 40000
OC(COc1ccc(Cc2ccccc2)cc1)CN1CCc2ccccc2C1 (stereo not shown) [Compound D10] | 101 to 1000
O=C(Nc1cccc(OCC(O)CN2CCc3ccccc3C2)c1)c1cnco1 (stereo not shown) [Compound D158] | 1000 to 10000

same assay, conditions: Table E-2; read-out: Biochemical IC50

SMILES | IC50 [nM]
O=C(COc1cccc2cccnc12)NCC(O)CN1Cc2ccccc2C1 (stereo not shown) [Compound E19.] | 101 to 1000
